{
  "source": "patent EP4497440A1",
  "about": "“USE OF 7-TRIFLUOROMETHYL-7ALPHA,25-DIHYDROXYCHOLESTEROL IN THE TREATMENT AND MODULATION OF AUTOIMMUNE AND INFLAMMATORY DISEASES OF THE NERVOUS SYSTEM AND NEURODEGENERATIVE DISEASES” (Gdanski Uniwersytet Medyczny, priority 2023, dated 2025)",
  "key": {"Ebi2 receptor": {"system": "Ebi2 receptor", "assay": "Ebi2 mRNA level in organotypic cerebellar slices", "assay_type": "cell-based, mouse", "settings": "slices first treated with LPC and then with 7α,25OHC", "protocol": "(§1) Organotypic cerebellar slices were sampled from ten-day old mice and then grown in an incubator for 14 days. After 14 days the myelin was chemically removed with LPC (0.4 mg/ml). Following the removal of the myelin sheaths, the slices were treated with: • 1. the control group: regular culture medium, without LPC • 2. LPC, then on serum-free culture medium for 14-16 days • 3. LPC followed by barbadin 16 µM in serum-free culture medium for 14-16 days • 4. LPC followed by 7α,25OHC 0.1 µM in serum-free culture medium for 14-16 days • 5. LPC followed by NIBR189 10 µM in serum-free culture medium for 14-16 days • 6. LPC followed by barbadin 16 µM + 7α,25OHC 0.1 µM in serum-free culture medium for 14-16 days\n(§2) Measurement of the mRNA level of the Ebi2 receptor and of the enzymes synthesizing (Ch25h, Cyp7b1) and degrading (Hsd3b7) the natural ligand 7α,25OHC in organotypic cerebellar slices treated with non-modified oxysterol 7α,25OHC (Fig 5) (tissue and treatments as in Fig 1 and Fig 2a) and in cerebella of the mice subject to the cuprizone model, treated with modified oxysterol CF3-7α,25OHC (Fig 6). LPC treatment modulates enzymes which synthesise and degrade the natural oxysterol 7α,25OHC."}, "[1]": {"system": "mouse organotypic cerebellar slices", "assay": "Remyelination of organotypic cerebellar slices after LPC demyelination (Mbp mRNA by quantitative PCR)", "assay_type": "cell-based", "settings": "LPC 0.4 mg/ml, then treatment in serum-free culture medium for 14-16 days; barbadin 16 µM, 7α,25OHC 0.1 µM, NIBR189 10 µM; concentration of CF3-7α,25OHC not given; vs untreated LPC slices", "protocol": "as §1\nOnce the experiment was completed (remyelination for 14-16 days) the slices were collected and MBP mRNA levels were measured by the PCR quantitative method. In the mouse organotypic cerebellar slices in which myelin sheaths were chemically removed with lysophosphatidylcholine (LPC) spontaneous myelin regeneration took place except for the slices treated with a selective EBI2 receptor antagonist (NIBR189). The results once again reveal key significance of EBI2 intracellular signalling for myelin regeneration. […] Barbadin, which inhibits internalisation of the EBI2 receptor, is necessary to achieve the therapeutic effect (faster remyelination) in the case of non-modified oxysterol (Fig 1 and Fig 2a)."}, "[2]": {"settings": "mice, subcutaneous or intraperitoneal injection, elimination from blood; cited from earlier work"}, "Ch25h": {"system": "Ch25h", "assay": "mRNA level of oxysterol-synthesizing enzyme in organotypic cerebellar slices", "assay_type": "cell-based, mouse", "settings": "slices first treated with LPC and then with 7α,25OHC", "protocol": "as §1, §2"}, "[3]": {"system": "pro-inflammatory cytokine IL1β", "assay": "Cuprizone model: IL1β mRNA in cerebellum lysates by PCR", "settings": "cerebellum lysates, cuprizone model; versus the group treated solely with vehicles", "from_the_text": "Identifying the mRNA levels of pro-inflammatory cytokine IL1β in mouse cerebellum lysates (Fig 11)."}, "white blood cells": {"system": "white blood cells", "assay": "Cuprizone model: blood morphology (white blood cell counts)", "assay_type": "in vivo, mice", "settings": "after 14 days of treatment in the cuprizone model; CF3-7α,25OHC 20 mg/kg s.c., barbadin 0.3 mg/kg i.p.; compared to vehicle group #3", "protocol": "C (Fig 7) or #3 (Fig 8 and 9) vehicle control group - the mice were fed with chow containing cuprizone for 9 weeks, and then with regular chow without cuprizone for another 2 weeks. Over the 2 weeks on regular chow the mice in the vehicle control group were first injected vehicle #1: DMSO (intraperitoneal injection), 150 µl once a day, and then vehicle #2: canola oil, subcutaneously, 150 µl once a day.\n#4 (Fig 8 and 9) barbadin control group - the mice were fed with chow containing cuprizone for 9 weeks, and then with regular chow without cuprizone for another 2 weeks. Over the 2 weeks on regular chow the mice in the group were injected barbadin 0.3 mg/kg, intraperitoneally, 150 µl once a day, and then vehicle #2: canola oil, subcutaneously, 150 µl once a day.\nE (Fig 7) or #5 experimental group with oxysterol CF3-7α,25OHC - the mice were fed with chow containing cuprizone for 9 weeks, and then with regular chow without cuprizone for another 2 weeks. Over the 2 weeks on regular chow the mice in the group were injected vehicle #1: DMSO, intraperitoneally, 150 µl once a day, and CF3-7α,25OHC, dose: 20 mg/kg, subcutaneously, 150 µl once a day.\n#6 (Fig 8 and 9) experimental group with barbadin + oxysterol CF3-7α,25OHC - the mice were fed with chow containing cuprizone for 9 weeks, and then with regular chow without cuprizone for another 2 weeks. Over the 2 weeks on regular chow the mice in the group were injected barbadin, 0.3 mg/kg, intraperitoneally, 150 µl once a day, and then one hour following the barbadin injection they were injected CF3-7α,25OHC, dose: 20 mg/kg, subcutaneously, 150 µl once a day.\nThe blood from the heart was sampled after the mice had been euthanised, and blood morphology test was performed using a standard diagnostic analyser. […] The lymphocyte count in peripheral blood of the mice which had been injected with CF3-7α,25OHC was lower by 50% compared to the control group of mice injected with vehicles (gr. #3 or C). The specific action of CF3-7α,25OHC leading to reduction of the lymphocyte count in blood finds confirmation in the results obtained for the mice of groups #4 (or D) and #6 (or F). Compared to the control group, the lymphocyte count in blood in the group of mice injected with barbadin (#4 or D) was lower only by 21%, and in the group of mice injected with barbadin + CF3-7α,25OHC by 7%. Following interaction with CF3-7α,25OHC, barbadin blocks internalisation of the EBI2 receptor from the cell membrane. The absence of any significant effect related to the treatment with barbadin or barbadin + CF3-7α,25OHC indicates a specific action of CF3-7α,25OHC on the EBI2 receptor and the consequential effects of that action, namely reduction of the count of circulating lymphocytes in blood. Moreover, the number of monocytes in group #5 (or E: mice treated with CF3-7α,25OHC) was lower by as much as 66% and the total leukocyte count (lymphocytes and monocytes included) was also substantially lower (by 51%), though only in the group of mice injected with CF3-7α,25OHC. In our subsequent in vivo tests (short-term pharmacology) we confirmed the action of CF3-7α,25OHC. In that test, too, it reduced the count of white blood cells. CF3-7α,25OHC reduces the lymphocyte count as early as following the 4 mg/kg dose and the effect lasts for 24 hours following administration."}},
  "note": "Entries after “also recorded” stand apart in the source; their conditions may differ.",
  "data": [
    {"smiles": "C[C@H](CCCC(C)(C)O)[C@H]1CC[C@H]2[C@@H]3[C@H](O)C=C4C[C@@H](O)CC[C@]4(C)[C@H]3CC[C@]12C", "note": "[7α,25OHC]", "values": [
      {"measurement": "Ebi2 expression", "setting": "Ebi2 receptor", "result": "reduces the expression level of receptor EBI2; also recorded: does not increase its expression; also recorded: does not increase Ebi2 expression"},
      {"measurement": "remyelination (Mbp expression)", "setting": "[1]", "result": "do not remyelinate quicker than ones not subject to any treatment; also recorded: do not remyelinate faster than the untreated slices"},
      {"measurement": "half-life", "setting": "[2]", "result": "ca. 30 minutes"},
      {"measurement": "level of Ch25h", "setting": "Ch25h", "result": "reduces the level of Ch25h"}
    ]},
    {"smiles": "COc1ccc(C(=O)N2CCN(C(=O)/C=C/c3ccc(Br)cc3)CC2)cc1", "note": "[NIBR189, (2E)-3-(4-bromophenyl)-1-(4-(4-methoxybenzyoil)-1-piperazine)-2-propen-1-on]", "values": [
      {"measurement": "remyelination (Mbp expression)", "setting": "[1]", "result": "do not remyelinate"}
    ]},
    {"smiles": "Nn1cnc2scc(-c3ccc(Cc4ccccc4)cc3)c2c1=O", "note": "[barbadin, reference compound]", "values": [
      {"measurement": "mRNA level of IL1β went up by", "setting": "[3]", "result": 2, "unit": "%"},
      {"measurement": "drop in lymphocytes (lymphocyte count in peripheral blood lower by)", "setting": "white blood cells", "result": 21, "unit": "%"}
    ]}
  ]
}
